Reference: ChEMBL document CHEMBL1926613, “Bisubstrate analogue inhibitors of 6-hydroxymethyl-7,8-dihydropterin pyrophosphokinase: New design with improved properties” (Bioorg Med Chem, 2012)

How the values were obtained:
[1] = biological target: T1, 2-amino-4-hydroxy-6-hydroxymethyldihydropteridine pyrophosphokinase (Escherichia coli (strain K12), UniProt P26281); assay: Binding affinity to Escherichia coli HPPK using 6-hydroxymethyl-7,8-dihydropterin as substrate and ATP by fluorometric analysis
T1 sequence (P26281 whole entry): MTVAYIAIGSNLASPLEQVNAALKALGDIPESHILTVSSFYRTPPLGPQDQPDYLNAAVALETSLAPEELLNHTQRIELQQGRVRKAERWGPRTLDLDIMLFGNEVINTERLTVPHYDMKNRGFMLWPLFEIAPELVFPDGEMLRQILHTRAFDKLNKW

[2] = biological target: T1, 2-amino-4-hydroxy-6-hydroxymethyldihydropteridine pyrophosphokinase; assay: Inhibition of Escherichia coli HPPK using 6-hydroxymethyl-7,8-dihydropterin as substrate and [32P]-ATP

Compound | Kd [1] [nM] | IC50 [2] [nM]
Nc1nc2ncc(COP(=O)(O)OP(=O)(O)OP(=O)(O)OP(=O)(O)OC[C@H]3O[C@@H](n4cnc5c(N)ncnc54)[C@H](O)[C@@H]3O)nc2c(=O)[nH]1 | 470 | 440
Nc1nc2ncc(CNCCN3CCC(SC[C@H]4O[C@@H](n5cnc6c(N)ncnc65)[C@H](O)[C@@H]4O)CC3)nc2c(=O)[nH]1 | > 150000 | > 100000
CC1(C)Nc2nc(N)[nH]c(=O)c2N=C1C(=O)NCCN1CCC(SC[C@H]2O[C@@H](n3cnc4c(N)ncnc43)[C@H](O)[C@@H]2O)CC1 | 2550 | 3160
